Test results as given in patent US20250034161A1, “SPIROCYCLIC COMPOUND AS KRAS-G12C INHIBITOR” (Shanghai Euregen Biopharma Co., Ltd., priority 2020, published 2025).

Key:
Format in all cases: cell-based
A549(G12S) = test: Cell selectivity test, proliferation inhibition A549; conditions: Homo sapiens, 72 hours
From the text: (§1) • 1. Test purpose: to detect the proliferation inhibition of the test compounds on NCI-H23, NCI-H2122, HCC827, Mia paca2, A549 and SW837 cell lines. • 2. […] No. FND500); Penicillin-streptomycin was purchased from Gibco (Art. No. 15140-122); 0.25% trypsin-ethylenediaminetetraacetic acid digestive juice (Trypsin-EDTA) was purchased from Gibco (Art. No. 25200-072); dimethyl sulfoxide (DMSO) was purchased from Sigma (Art. No. D2650); 96-well cell plate was purchased from Corning (Art. No. 3610); incubator was purchased from NuAire (model number: NU-5700E); Biosafety cabinet was purchased from AuAire (model number: NU-543-600S); Inverted microscope was purchased from Nikon (Art. No. TS-100); Automated cell counter was purchased from Life technologies (model number: Countess II); Microplate reader was purchased from PerkinElmer (model number: Envision); the data processing software was GraphPad Prism 5.0. […]

HCC827(wt) = test: Cell selectivity test, proliferation inhibition HCC827; conditions: Homo sapiens, 72 hours
From the text: as §1

NCI-H2122 (G12C) = test: Cell selectivity test, proliferation inhibition NCI-H2122; conditions: Homo sapiens, 72 hours
From the text: as §1

SW837(G12C) = test: Cell selectivity test, proliferation inhibition SW837; conditions: Homo sapiens, 72 hours
From the text: as §1

Mia paca2(G12C) = test: Cell selectivity test, proliferation inhibition Mia paca2; conditions: Homo sapiens, MIA PaCa-2, 72 hours
From the text: as §1

NCI-H23 (G12C) = test: Cell selectivity test, proliferation inhibition NCI-H23; conditions: Homo sapiens, 72 hours
From the text: as §1

SMILES: C=CC(=O)N1CCN(c2nc(=O)n(-c3c(C)ccnc3C(C)C)c3nc(-c4c(O)cccc4F)c(F)cc23)[C@@H](C)C1 [AMG510]
- IC50 (A549(G12S)): > 10 µM
- IC50 (HCC827(wt)): > 10 µM
- IC50 (NCI-H2122 (G12C)): 0.027 µM
- IC50 (SW837(G12C)): 0.285 µM
- IC50 (Mia paca2(G12C)): 0.0157 µM
- IC50 (NCI-H23 (G12C)): 0.00755 µM
